Results from ChEMBL document CHEMBL1201862, “PubChem BioAssay data set” (2004).
The source made the active and inactive calls.

Experiments:
[1] = target: T1, G-protein coupled receptor 35 (Homo sapiens, UniProt Q9HC97); assay: SAR Analysis for the identification of Selective Antagonists of ERK1/2 Activity in GPR35-Overexpressing U2OS Cells. [Related pubchem assays: 2079, 2058 ]; format: functional, cell-based
[2] = target: Tyrosine-protein phosphatase non-receptor type 12 (Homo sapiens, UniProt Q05209); assay: SAR Selectivity Analysis of small molecule inhibitors of PEST using pCAP in a fluorescence assay. [Related pubchem assays (depositor defined):AID1779, AID1784, AID2135]; format: functional
Sequence of Tyrosine-protein phosphatase non-receptor type 12 (Q05209 whole entry): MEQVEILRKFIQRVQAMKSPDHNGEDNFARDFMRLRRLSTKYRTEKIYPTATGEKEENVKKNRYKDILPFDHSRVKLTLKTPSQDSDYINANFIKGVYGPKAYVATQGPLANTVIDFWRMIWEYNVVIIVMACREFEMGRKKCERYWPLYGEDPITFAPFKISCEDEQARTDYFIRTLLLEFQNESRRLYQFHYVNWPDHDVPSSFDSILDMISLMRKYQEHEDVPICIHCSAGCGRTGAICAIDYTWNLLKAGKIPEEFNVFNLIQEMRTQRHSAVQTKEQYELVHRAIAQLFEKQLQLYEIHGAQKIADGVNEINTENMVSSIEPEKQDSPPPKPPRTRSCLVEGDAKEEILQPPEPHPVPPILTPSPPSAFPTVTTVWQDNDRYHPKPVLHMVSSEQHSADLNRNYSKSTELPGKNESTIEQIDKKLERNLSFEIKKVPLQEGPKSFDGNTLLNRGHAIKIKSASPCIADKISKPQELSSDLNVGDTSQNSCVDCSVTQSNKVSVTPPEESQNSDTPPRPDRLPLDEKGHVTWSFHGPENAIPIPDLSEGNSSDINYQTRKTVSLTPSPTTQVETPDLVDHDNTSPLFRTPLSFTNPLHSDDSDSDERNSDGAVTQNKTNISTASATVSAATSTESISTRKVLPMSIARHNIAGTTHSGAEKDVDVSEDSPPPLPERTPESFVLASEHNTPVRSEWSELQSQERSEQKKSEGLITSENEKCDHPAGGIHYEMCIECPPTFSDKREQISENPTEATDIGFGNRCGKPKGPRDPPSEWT

[3] = target: 72 kDa type IV collagenase (Homo sapiens, UniProt P08253); assay: Dose Response validation of uHTS RPN11 inhibitor hits using a MMP-2 Fluorescence assay.; format: functional
Sequence of 72 kDa type IV collagenase (P08253 whole entry): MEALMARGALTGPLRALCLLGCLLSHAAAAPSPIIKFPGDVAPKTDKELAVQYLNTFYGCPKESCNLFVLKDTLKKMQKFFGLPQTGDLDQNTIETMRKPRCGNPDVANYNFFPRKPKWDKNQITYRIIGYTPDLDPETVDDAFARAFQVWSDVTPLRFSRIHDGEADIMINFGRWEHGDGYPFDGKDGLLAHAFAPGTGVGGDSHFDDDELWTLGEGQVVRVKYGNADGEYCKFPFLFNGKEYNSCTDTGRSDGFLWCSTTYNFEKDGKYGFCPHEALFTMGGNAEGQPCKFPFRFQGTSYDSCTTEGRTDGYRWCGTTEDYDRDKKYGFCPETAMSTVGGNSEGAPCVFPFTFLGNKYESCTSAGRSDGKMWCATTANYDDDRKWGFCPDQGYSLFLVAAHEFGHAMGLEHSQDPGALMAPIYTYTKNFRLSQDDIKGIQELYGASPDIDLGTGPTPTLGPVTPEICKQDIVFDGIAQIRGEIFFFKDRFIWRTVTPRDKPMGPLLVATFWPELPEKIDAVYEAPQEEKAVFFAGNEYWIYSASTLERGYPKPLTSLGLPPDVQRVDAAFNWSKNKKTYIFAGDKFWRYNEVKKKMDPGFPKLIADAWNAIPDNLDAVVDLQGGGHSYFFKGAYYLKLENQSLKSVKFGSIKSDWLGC

Prothrombin = Prothrombin (Bos taurus, UniProt P00735); assay: thrombin inhibition, dose response, biochemical, fluorescence polarization, uHTS hits (AID 602369); format: functional
[4] = target: G-protein coupled receptor 55 (Homo sapiens, UniProt Q9Y2T6); assay: GPR55 antagonists, SAR follow-up, counter-screen for GPR35 antagonist project, imaging, image-based (AID 2397); format: functional
Sequence of G-protein coupled receptor 55 (Q9Y2T6 whole entry): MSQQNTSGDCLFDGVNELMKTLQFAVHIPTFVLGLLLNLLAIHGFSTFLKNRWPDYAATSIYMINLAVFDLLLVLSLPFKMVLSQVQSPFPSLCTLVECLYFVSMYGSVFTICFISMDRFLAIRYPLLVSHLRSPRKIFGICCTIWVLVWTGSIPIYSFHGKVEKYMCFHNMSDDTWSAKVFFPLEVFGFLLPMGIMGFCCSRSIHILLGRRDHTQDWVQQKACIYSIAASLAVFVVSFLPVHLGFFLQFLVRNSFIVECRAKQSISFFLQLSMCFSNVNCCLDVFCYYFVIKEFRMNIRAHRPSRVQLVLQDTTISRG

[5] = target: T1, G-protein coupled receptor 35; assay: GPR35 antagonists blocking zaprinast-driven arrestin recruitment, primary screen, imaging, U2OS, beta-arrestin-GFP, zaprinast agonist (AID 2058); format: functional;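 further: antagonist potency meaning inhibition of agonist-induced arrestin redistribution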
[6] = target: 26S proteasome non-ATPase regulatory subunit 14 (Homo sapiens, UniProt O00487); assay: inhibition of proteasome subunit RPN11 – biochemical, fluorescence polarization, uHTS hits, confirmation (AID 602368); format: functional
Sequence of 26S proteasome non-ATPase regulatory subunit 14 (O00487 whole entry): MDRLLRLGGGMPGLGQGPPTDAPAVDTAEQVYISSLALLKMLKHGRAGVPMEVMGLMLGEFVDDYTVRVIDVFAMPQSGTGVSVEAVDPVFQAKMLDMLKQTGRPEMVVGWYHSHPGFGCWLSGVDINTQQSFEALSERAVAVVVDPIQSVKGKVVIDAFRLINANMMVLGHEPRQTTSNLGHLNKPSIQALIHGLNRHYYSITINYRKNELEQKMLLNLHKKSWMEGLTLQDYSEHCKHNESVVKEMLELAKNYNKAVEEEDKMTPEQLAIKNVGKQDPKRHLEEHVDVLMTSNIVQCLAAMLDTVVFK

[7] = target: T2, Tyrosine-protein phosphatase non-receptor type 22 (Homo sapiens, UniProt Q9Y2R2); assay: SAR LYP1 Fluorescent Assay using OMFP substrate for In Vitro dose response studies - Set 3. [Related pubchem assays (depositor defined):AID1779, AID1784, AID2140, AID2686]; format: functional
T2 sequence (Q9Y2R2 whole entry): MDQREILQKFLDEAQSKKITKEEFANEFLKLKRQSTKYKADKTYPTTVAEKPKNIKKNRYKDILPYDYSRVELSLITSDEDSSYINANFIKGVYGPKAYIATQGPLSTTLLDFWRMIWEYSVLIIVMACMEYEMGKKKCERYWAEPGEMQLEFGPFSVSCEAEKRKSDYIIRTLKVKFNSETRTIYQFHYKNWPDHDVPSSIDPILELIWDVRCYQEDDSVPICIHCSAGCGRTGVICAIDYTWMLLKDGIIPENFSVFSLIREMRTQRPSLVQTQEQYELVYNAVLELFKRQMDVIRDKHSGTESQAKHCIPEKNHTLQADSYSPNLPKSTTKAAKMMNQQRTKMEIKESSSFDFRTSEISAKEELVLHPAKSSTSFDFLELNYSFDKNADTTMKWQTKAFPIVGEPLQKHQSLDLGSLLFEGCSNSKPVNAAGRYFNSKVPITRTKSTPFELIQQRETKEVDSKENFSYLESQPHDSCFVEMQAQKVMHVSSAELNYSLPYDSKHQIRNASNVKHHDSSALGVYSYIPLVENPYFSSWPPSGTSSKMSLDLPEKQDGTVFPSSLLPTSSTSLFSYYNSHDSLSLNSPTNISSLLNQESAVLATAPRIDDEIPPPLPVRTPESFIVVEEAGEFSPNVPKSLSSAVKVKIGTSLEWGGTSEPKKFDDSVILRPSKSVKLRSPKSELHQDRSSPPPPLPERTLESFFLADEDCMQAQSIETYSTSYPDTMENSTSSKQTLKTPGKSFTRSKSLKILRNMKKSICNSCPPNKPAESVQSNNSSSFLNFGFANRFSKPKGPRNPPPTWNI

[8] = target: T3, Tyrosine-protein phosphatase non-receptor type 7 (Homo sapiens, UniProt P35236); assay: HePTP (PTPN7) phosphatase inhibitor potency, SAR follow-up, biochemical, set 2 (AID 449736); format: functional
T3 sequence (P35236 whole entry): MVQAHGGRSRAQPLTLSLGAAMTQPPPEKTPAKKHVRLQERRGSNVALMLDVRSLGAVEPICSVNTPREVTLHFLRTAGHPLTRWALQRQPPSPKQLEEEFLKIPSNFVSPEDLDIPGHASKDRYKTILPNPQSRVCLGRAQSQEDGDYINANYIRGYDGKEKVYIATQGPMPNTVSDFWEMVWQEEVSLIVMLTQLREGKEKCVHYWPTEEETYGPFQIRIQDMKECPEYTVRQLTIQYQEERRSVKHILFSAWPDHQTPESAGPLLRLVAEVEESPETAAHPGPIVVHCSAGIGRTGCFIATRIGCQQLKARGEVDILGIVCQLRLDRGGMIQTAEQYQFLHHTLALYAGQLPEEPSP

[9] = target: T2, Tyrosine-protein phosphatase non-receptor type 22; assay: LYP (PTPN22) phosphatase inhibitor potency, SAR follow-up, biochemical, pCAP fluorogenic substrate, fluorescence, set 3 (AID 449727); format: functional
[10] = target: Lysine-specific demethylase 4C (Homo sapiens, UniProt Q9H3R0); assay: GASC-1 (JMJD2C) histone demethylase inhibitors, dose response, biochemical, DELFIA europium, cherry-picked samples (AID 488835); format: functional
[11] = cytotoxicity in HMLE control line with eGFP shRNA, dose response, counter-screen for HMLE_sh_ECad selective toxicity project, cell-based, HMLE_sh_eGFP, luminescence (AID 463074); format: functional, Homo sapiens;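 further: HMLE human mammary epithelial cells expressing control shRNA against eGFP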
[12] = Luminescence Cell-Based Dose Retest to Confirm Inhibitors of Cancer Stem Cells. [Related pubchem assays (depositor defined):AID2717, AID2721]; format: functional; conditions: Homo sapiens
[13] = target: T4, Small ubiquitin-related modifier 1 (Homo sapiens, UniProt P63165); assay: inhibitors of SUMO1 peptide binding, dose response, biochemical, fluorescence polarization, uHTS hits (AID 624382); format: functional; conditions: read-out: IC50_Mean
T4 sequence (P63165 whole entry): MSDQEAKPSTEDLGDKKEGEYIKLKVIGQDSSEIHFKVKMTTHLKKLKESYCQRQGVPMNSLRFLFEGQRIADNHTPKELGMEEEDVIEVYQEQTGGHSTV

[14] = target: Beta-adrenergic receptor kinase 1 (Homo sapiens, UniProt P25098); assay: GRK2 inhibitors displacing RNA aptamer, dose response, biochemical, flow cytometry beads, FAM-aptamer, powder set 1 (AID 588720)
Sequence of Beta-adrenergic receptor kinase 1 (P25098 whole entry): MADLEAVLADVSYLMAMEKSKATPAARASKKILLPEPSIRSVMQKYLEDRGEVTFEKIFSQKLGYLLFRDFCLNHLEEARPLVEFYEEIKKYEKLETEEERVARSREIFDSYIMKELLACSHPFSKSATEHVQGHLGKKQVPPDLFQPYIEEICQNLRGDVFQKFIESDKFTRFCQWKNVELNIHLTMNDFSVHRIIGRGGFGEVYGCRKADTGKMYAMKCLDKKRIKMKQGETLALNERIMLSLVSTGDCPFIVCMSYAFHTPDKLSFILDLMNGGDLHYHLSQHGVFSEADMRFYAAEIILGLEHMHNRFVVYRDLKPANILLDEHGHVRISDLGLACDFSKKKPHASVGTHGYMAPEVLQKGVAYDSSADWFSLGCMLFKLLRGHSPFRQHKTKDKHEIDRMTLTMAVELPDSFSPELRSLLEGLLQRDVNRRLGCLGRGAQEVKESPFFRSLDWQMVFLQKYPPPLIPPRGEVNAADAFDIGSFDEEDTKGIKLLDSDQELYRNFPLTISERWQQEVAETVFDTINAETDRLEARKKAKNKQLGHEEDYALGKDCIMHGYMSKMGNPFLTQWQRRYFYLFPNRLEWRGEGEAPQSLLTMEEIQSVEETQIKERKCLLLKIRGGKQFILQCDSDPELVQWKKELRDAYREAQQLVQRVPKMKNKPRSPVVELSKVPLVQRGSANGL

[15] = target: T5, Apoptotic protease-activating factor 1 (Homo sapiens, UniProt O14727); assay: SAR analysis of small molecule Activators of Apaf-1 in a Fluorescent assay.; format: functional; conditions: read-out: EC50_Mean;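 further: caspase-3 cleavage of fluorogenic Rh110 DEVD substrate downstream of apoptosome activation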
T5 sequence (O14727 whole entry): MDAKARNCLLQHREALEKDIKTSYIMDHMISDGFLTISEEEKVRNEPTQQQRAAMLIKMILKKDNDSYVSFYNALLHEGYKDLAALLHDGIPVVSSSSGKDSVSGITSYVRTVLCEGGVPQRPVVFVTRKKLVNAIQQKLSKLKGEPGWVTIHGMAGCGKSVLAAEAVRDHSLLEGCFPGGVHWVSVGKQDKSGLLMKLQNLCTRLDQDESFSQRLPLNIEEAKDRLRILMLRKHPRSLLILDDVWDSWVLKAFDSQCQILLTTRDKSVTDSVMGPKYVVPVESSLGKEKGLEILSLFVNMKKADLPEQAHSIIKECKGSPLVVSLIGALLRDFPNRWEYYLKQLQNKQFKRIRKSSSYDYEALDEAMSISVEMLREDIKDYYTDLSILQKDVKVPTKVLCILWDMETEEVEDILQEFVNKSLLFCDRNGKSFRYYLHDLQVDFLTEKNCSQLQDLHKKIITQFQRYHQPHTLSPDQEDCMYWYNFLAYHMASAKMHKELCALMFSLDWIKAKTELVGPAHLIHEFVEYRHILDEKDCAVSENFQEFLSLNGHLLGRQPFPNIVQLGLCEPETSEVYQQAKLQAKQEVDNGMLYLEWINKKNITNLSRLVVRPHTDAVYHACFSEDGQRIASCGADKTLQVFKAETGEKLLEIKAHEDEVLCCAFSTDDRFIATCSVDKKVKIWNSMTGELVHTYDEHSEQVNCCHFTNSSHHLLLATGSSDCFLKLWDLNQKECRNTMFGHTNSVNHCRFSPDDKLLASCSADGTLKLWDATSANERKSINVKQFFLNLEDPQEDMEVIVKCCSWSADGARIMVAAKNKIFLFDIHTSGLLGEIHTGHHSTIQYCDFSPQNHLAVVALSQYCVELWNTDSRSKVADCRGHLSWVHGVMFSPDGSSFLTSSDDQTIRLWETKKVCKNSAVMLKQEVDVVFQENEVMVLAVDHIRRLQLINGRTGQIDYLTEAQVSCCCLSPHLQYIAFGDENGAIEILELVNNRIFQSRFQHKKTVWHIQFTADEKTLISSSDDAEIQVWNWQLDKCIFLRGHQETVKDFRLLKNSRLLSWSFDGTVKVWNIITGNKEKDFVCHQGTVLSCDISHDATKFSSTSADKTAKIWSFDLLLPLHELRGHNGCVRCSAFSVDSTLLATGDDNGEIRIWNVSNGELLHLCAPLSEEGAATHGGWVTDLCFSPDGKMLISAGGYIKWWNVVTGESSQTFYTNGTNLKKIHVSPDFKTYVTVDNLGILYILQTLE

Bcl-2-like protein 1 = Bcl-2-like protein 1 (Homo sapiens, UniProt Q07817); assay: BCL-XL inhibitors, dose response, selectivity assay for MCL1 inhibitor project, biochemical, fluorescence polarization, 1536-well (AID 2218)
Sequence of Bcl-2-like protein 1 (Q07817 whole entry, the tested form may be a part): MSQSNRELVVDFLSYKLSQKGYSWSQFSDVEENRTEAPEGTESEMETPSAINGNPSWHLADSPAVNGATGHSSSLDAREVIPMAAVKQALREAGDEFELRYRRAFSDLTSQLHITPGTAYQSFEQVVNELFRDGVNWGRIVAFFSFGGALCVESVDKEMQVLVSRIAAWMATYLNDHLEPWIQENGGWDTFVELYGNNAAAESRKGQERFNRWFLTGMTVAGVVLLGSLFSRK

[16] = target: T6, Carboxy-terminal domain RNA polymerase II polypeptide A small phosphatase 1 (Homo sapiens, UniProt Q9GZU7); assay: inhibitors of CTDSP1, concentration-response testing, biochemical assay, absorbance-based, actives from ultra-high-throughput screening (AID 540297); format: functional
T6 sequence (Q9GZU7 whole entry): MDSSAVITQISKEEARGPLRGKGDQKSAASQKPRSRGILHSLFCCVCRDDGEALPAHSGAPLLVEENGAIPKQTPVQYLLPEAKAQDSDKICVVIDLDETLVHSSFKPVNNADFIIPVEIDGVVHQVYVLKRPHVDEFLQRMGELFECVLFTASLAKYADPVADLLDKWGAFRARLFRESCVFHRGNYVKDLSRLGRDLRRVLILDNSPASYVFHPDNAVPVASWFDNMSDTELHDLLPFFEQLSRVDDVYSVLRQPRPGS

[17] = target: T4, Small ubiquitin-related modifier 1; assay: inhibitors of SUMO1 partner interactions, dose response, biochemical, FRET (AID 624383); format: functional; conditions: read-out: IC50_Mean
[18] = target: Induced myeloid leukemia cell differentiation protein Mcl-1 (Homo sapiens, UniProt Q07820); assay: MCL1-BIM BH3 interaction inhibitors, dose response, biochemical, fluorescence polarization, BIM-BH3 peptide, 1536-well (AID 2217)
Sequence of Induced myeloid leukemia cell differentiation protein Mcl-1 (Q07820 whole entry): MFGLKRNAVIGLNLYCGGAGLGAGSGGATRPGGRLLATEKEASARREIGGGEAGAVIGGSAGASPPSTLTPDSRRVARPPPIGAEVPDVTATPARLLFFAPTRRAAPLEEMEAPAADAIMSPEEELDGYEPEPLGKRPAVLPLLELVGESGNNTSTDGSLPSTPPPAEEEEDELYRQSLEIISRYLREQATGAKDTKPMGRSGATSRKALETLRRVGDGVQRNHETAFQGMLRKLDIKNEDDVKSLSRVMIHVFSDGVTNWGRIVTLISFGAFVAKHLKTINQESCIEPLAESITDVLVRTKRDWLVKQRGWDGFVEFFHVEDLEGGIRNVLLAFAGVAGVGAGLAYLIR

Phosphomannomutase 2 = Phosphomannomutase 2 (Homo sapiens, UniProt O15305); assay: Counter screen SAR assay for PMM2 inhibitors via a fluorescence intensity assay. [Related pubchem assays (depositor defined):AID1545, AID1574]
Sequence of Phosphomannomutase 2 (O15305 whole entry): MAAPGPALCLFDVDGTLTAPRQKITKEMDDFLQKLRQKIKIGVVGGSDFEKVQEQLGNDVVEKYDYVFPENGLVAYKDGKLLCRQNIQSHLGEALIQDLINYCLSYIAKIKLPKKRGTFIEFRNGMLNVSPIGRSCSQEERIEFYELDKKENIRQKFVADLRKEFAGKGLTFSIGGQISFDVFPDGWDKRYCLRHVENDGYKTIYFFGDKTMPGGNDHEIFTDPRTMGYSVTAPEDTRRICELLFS

[19] = target: T7, Mannose-6-phosphate isomerase (Homo sapiens, UniProt P34949); assay: PMI enzyme inhibitors, confirmation, biochemical, fluorescence intensity (AID 1535)
T7 sequence (P34949 whole entry): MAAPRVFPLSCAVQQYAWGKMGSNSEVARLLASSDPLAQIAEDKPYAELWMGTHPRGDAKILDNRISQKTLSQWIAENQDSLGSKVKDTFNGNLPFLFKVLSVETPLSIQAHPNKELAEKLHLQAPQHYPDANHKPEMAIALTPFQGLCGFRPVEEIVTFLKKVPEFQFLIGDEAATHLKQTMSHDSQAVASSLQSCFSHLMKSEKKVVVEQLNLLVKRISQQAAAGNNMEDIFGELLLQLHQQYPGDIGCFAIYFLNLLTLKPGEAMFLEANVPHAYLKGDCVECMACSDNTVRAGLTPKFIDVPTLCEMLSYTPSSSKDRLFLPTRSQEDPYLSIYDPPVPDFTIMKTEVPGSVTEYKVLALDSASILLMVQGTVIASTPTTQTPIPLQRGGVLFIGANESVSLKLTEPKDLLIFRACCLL

[20] = target: UDP-galactopyranose mutase (Mycobacterium tuberculosis, UniProt P9WIQ1); assay: Inhibitors of Mycobacterium tuberculosis UDP-galactopyranose mutase (UGM) enzyme Measured in Biochemical System Using Plate Reader - 2105-02_Inhibitor_Dose_CherryPick_Activity. [Related pubchem assays (depositor defined):AID504439]
Sequence of UDP-galactopyranose mutase (P9WIQ1 whole entry): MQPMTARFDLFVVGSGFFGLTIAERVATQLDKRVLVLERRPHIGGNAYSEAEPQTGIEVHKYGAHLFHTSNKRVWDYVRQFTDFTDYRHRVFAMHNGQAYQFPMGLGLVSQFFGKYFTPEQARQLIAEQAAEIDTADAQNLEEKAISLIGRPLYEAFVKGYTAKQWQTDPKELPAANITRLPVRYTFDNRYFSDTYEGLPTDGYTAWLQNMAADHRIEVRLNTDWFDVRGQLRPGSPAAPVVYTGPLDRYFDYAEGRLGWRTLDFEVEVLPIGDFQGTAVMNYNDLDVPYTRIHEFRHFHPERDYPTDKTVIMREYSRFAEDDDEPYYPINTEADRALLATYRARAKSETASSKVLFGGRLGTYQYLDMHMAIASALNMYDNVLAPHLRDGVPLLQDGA

T1 sequence (Q9HC97 whole entry): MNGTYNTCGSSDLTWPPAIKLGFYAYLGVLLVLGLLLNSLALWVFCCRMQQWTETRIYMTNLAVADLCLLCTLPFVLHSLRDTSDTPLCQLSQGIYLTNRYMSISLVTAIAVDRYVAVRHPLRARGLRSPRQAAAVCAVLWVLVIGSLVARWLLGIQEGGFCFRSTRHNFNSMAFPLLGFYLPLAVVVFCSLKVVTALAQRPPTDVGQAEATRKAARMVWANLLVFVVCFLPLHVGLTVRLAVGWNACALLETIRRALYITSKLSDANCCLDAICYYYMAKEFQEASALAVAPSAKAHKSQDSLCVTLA

Structure (SMILES): O=C(CCCN1C(=O)/C(=C/c2ccc3c(c2)OCO3)SC1=S)Nc1ccc(C(=O)O)cc1
- IC50 [1]: 4.07 µM (active)
- IC50 [2]: 12.1 µM (active)
- IC50 [3]: 43 µM (active)
- IC50 (Prothrombin): 38.9 µM (active)
- IC50 [4]: 20 µM (inactive)
- IC50 [5]: 0.563 µM (active)
- IC50 [6]: 40.7 µM (active)
- IC50 [7]: 91.4 µM (active)
- IC50 [8]: 1.99 µM (active)
- IC50 [9]: 47 µM (active)

Structure (SMILES): c1cc2c(cc1-c1csc(NNC3=NCCCCC3)n1)OCCO2
- AC50 [10]: 17 µM (active)

Structure (SMILES): CN1CCN(/N=C/c2ccc(OCc3ccccc3)cc2)CC1
- AC50 [11]: 56 µM (active)
- AC50 [12]: 5.25 µM (active)

Structure (SMILES): COc1ccc(Cl)cc1NC(=O)CCS(=O)(=O)c1ccc(Br)cc1
- IC50 [13]: > 66.6 µM (inactive)
- EC50 [14]: 0.779 µM (active)
- IC50 [3]: > 100 µM (inactive)
- IC50 (Prothrombin): > 100 µM (inactive)
- EC50 [15]: 17.4 µM (active)
- IC50 (Bcl-2-like protein 1): 32.2 µM (not active)
- IC50 [6]: 10.9 µM (active)
- IC50 [16]: 4.16 µM (active)
- IC50 [17]: 5.02 µM (active)
- IC50 [18]: 11.4 µM (not active)

Structure (SMILES): COc1cc([N+](=O)[O-])ccc1/N=c1\ssnc1Cl
- IC50 (Phosphomannomutase 2): > 100 µM (inactive)
- IC50 [19]: 3.25 µM (active)

Structure (SMILES): O=C(NCc1ccc(F)cc1)c1cccc2c1C(=O)c1ccc(N3CCC(Cc4ccccc4)CC3)cc1S2(=O)=O
- AC50 [20]: 5.84 µM (active)
